# Tested on: p-IKKa levels in L363 (NIK translocated multiple myeloma) cells
# Assay: Assay 2: Effect of compounds on p-IKKa levels in L363 (NIK translocated multiple myeloma) cells
# Format: cell-based
# Conditions: Homo sapiens, L-363, 6 h, read-out: Assay 2 IC50 (nM), p-IKKa (Ser 176/180) in BAFF stimulated L363 cells with MG132, 6 h; average if tested more than once
# Description: Assay 2: Effect of Compounds on p-IKKa Levels in L363 (NIK Translocated Multiple Myeloma) Cells
# All compounds tested were dissolved and serially diluted in DMSO, 1:3 dilution for 11 points in an Echo compatible plate. 100% DMSO was added to columns 12 and 24 of the plate to serve as high and low signal controls. This compound plate was used to spot 20 nL of compound or DMSO into a Greiner 384 well TC plate (781080). The final DMSO concentration was 0.3% (v/v) in cell assays. Human L363 cells (ATCC) were cultured in RPM11640 medium supplemented with GlutaMax, non-essential amino acids, sodium pyruvate and 10% fetal bovine serum. Cells were routinely maintained at densities of 0.2×10^6 cells per ml—2×10^6 cells per mL at 37° C. in a humidified 5% CO2 atmosphere incubator. Cells were passaged twice a week splitting back to obtain the low density. The day before the assay, cells were washed twice in HBSS (Hank's Balanced Salt Solution), resuspended in Dulbecco's Modified Eagle Medium (DMEM)+0.5% IgG and protease free BSA (Jackson Immuno Research Laboratories), +/−250 ng/ml recombinant human B-cell activating factor (BAFF/BLyS/TNFSF13B) and incubated overnight at 37° C. in a humidified 5% CO2 atmosphere (bulk stimulation with or without BAFF). The next day, the cell concentration was adjusted to 1×10^7 cells/ml in DMEM+/−250 ng/ml BAFF +/−10 μM MG132 and plated at 10 μl/well into compound or DMSO spotted 384 well TC plates. Seeded cells were incubated at 37° C. in a humidified 5% CO2 atmosphere for 6 h. After 6 h, the plates were removed from the incubator and cell lysis was achieved by the addition of 2.5 μl 5×lysis buffer containing protease and phosphatase inhibitors, followed by shaking on a plate shaker at room temperature for 15 min. At the end of this incubation, lysed cells were sequentially treated and incubated with acceptor and donor bead mixes according to the manufacturer's protocol for a 1 plate/2-incubation suspension cell assay (AlphaLISA SureFire Ultra p-IKKa (Ser 176/180) Assay Kit (Perkin Elmer). Plates were read using an EnVision Multilabel Plate Reader (Perkin Elmer). Within an experiment, a concentration response curve for each compound was run in duplicate. The signal obtained in the test wells was normalized using high signal (BAFF stimulated cells, DMSO, MG132) and low signal (unstimulated cells, DMSO) controls. To determine the IC50, a sigmoidal curve was fitted to the plot of % inhibition versus Log10 compound concentration.
row,SMILES,IC50 [nM]
1,"CN1CC[C@@H](n2cc(Nc3nccc(-c4cccc(-c5cc([C@]6(O)CCN(C)C6=O)on5)n4)n3)cn2)[C@H](F)C1 (single isomer, unassigned) [Example 202]",< 50
2,"CN1CC[C@H](n2cc(Nc3nccc(-c4cccc(-c5cc([C@]6(O)CCN(C)C6=O)on5)n4)n3)cn2)C1 (single isomer, unassigned) [Example 203, (R)-3-Hydroxy-1-methyl-3-(3-(6-(2-((1-((*S)-1-methylpyrrolidin-3-yl)-1H-pyrazol-4-yl)amino)pyrimidin-4-yl)pyridin-2-yl)isoxazol-5-yl)pyrrolidin-2-one]",50 to 500
3,"CN1CC[C@@](O)(c2cc(-c3cccc(-c4ccnc(N[C@@H]5CCCC[C@@H]5O)n4)n3)no2)C1=O (single isomer, unassigned) [Example 336]",> 500
4,"CN1CC[C@@](O)(c2cc(-c3cccc(-c4ccnc(N[C@H]5CCCC[C@H]5O)n4)n3)no2)C1=O (single isomer, unassigned) [Example 337]",> 500
5,"C[C@H]1OCC[C@@H]1Nc1nccc(-c2cccc(-c3cc([C@]4(O)CCN(C)C4=O)on3)n2)n1 (single isomer, unassigned) [Example 346]",50 to 500
6,"C[C@@H]1OCC[C@@H]1Nc1nccc(-c2cccc(-c3cc([C@]4(O)CCN(C)C4=O)on3)n2)n1 (single isomer, unassigned) [Example 347]",50 to 500
7,"C[C@H](Nc1nccc(-c2cccc(-c3cc([C@]4(O)CCN(C)C4=O)no3)n2)n1)c1cnn(C)c1 (single isomer, unassigned) [Example 400]",> 500
8,"C[C@@H](Nc1nccc(-c2cccc(-c3cc([C@]4(O)CCN(C)C4=O)no3)n2)n1)c1cnn(C)c1 (single isomer, unassigned) [Example 401]",< 50
9,"C[C@@H](Nc1nccc(-c2cccc(-c3cc([C@]4(O)CCN(C)C4=O)on3)n2)n1)c1ccn(C)n1 (single isomer, unassigned) [Example 404, (R)-3-Hydroxy-1-methyl-3-(3-(6-(2-(((*R)-1-(1-methyl-1H-pyrazol-3-yl)ethyl)amino)pyrimidin-4-yl)pyridin-2-yl)isoxazol-5-yl)pyrrolidin-2-one]",> 500
10,"C[C@H](Nc1nccc(-c2cccc(-c3cc([C@]4(O)CCN(C)C4=O)on3)n2)n1)c1ccn(C)n1 (single isomer, unassigned) [Example 405, (R)-3-hydroxy-1-methyl-3-(3-(6-(2-(((*S)-1-(1-methyl-1H-pyrazol-3-yl)ethyl)amino)pyrimidin-4-yl)pyridin-2-yl)isoxazol-5-yl)pyrrolidin-2-one]",50 to 500
11,"CN1CC[C@@](O)(c2cnn(-c3cccc(-c4ccnc(Nc5cnn(C)c5Cl)n4)n3)c2)C1=O (single isomer, unassigned) [Example 411, (*R)-3-(1-(6-(2-((5-Chloro-1-methyl-1H-pyrazol-4-yl)amino)pyrimidin-4-yl)pyridin-2-yl)-1H-pyrazol-4-yl)-3-hydroxy-1-methylpyrrolidin-2-one]",50 to 500
12,"C[C@@H](CC(F)(F)F)Nc1nccc(-c2cccc(-c3cc([C@]4(O)CCN(C)C4=O)on3)n2)n1 (single isomer, unassigned) [Example 437, (R)-3-Hydroxy-1-methyl-3-(3-(6-(2-(((*S)-4,4,4-trifluorobutan-2-yl)amino)pyrimidin-4-yl)pyridin-2-yl)isoxazol-5-yl)pyrrolidin-2-one]",50 to 500
13,"C[C@H](CC(F)(F)F)Nc1nccc(-c2cccc(-c3cc([C@]4(O)CCN(C)C4=O)on3)n2)n1 (single isomer, unassigned) [Example 438, (R)-3-Hydroxy-1-methyl-3-(3-(6-(2-(((*R)-4,4,4-trifluorobutan-2-yl)amino)pyrimidin-4-yl)pyridin-2-yl)isoxazol-5-yl)pyrrolidin-2-one]",50 to 500

# — patent US20250282768A1 (Janssen Pharmaceutica NV, priority 2022, published 2025)
